Data reported in patent US6328986A, “Method of deterring birds from plant and structural surfaces” (priority 2000, dated 2001).

Columns and labels:
geese [1] = experiment: Deterrence of geese from loafing/roosting on grassy turf (Example 1); assay type: in vivo
Procedure: A formulation containing 50% wt., basis total formulation, of 9,10-anthraquinone dispersed in water with a small amount of surfactant and thickener was prepared and sprayed onto untreated grassy turf in an area where geese normally loaf or roost. One-third acre of turf was treated with areas of untreated turf bordering on both sides of the treated area. The dispersed anthraquinone particles were applied at a rate of 1 pint/acre (approximately 50 mg/m^2) on the treated area. […] The differences in the effects of the treated area versus the untreated area were easily noted. […] The geese were repelled from the treated area for approximately two weeks until the turf was cut. After cutting, another treatment was applied. The dispersed anthraquinone particles were applied at a rate of 1/2 pint/acre (approximately 25 mg/m^2) in the same manner of treating one strip of turf bordered by untreated turf. […] The test was continued for approximately two weeks. The test was concluded due to snow.

geese [2] = experiment: Deterrence of geese from 6.2 acre grassy test site (Example 2); assay type: in vivo
Procedure: A grassy test site having an area of 6.2 acres was selected within the grounds of a large campus style research complex having a substantial flock of geese in residence, which numbers 250-300 geese during the day and as many as 500 geese in the evening hours. In order to determine when daily observations should be made, the site was observed beforehand to determine the times during which the maximum number of geese were on the test site. Observations were conducted at the same time(s) each day in such manner that the behavior of the geese could be observed without disturbance. In addition, the number of droppings in selected areas of the site were counted each day, recorded and then removed from the test area by raking.
Following 10 days observation of the untreated test site, the above-described goose repellent composition was sprayed on the test area using a calibrated spray tank and a fan-shaped head sprayer. The liquid spray contained one gallon of repellent per 140 gallons of water and the rate of application was 2.77 pounds of AQ per acre of the mixture. In the absence of rain, the applied composition fully dried on the blades of grass within 24 hours.

seagulls = experiment: Deterrence of seagulls from flat roof (Example 3); assay type: in vivo; conditions: 50% by weight aqueous dispersion of 9,10-anthraquinone
From the text: (§1) In the following examples, the treating material was an aqueous dispersion of small particles of 9,10-anthraquinone containing 50% by weight of the anthraquinone and a small amount of surfactant.
A large number of seagulls regularly roosted on the flat roof of an industrial building in Northern California.

crows = experiment: Deterrence of crows from flat roof (Example 4); assay type: in vivo; conditions: 50% by weight aqueous dispersion of 9,10-anthraquinone
From the text: as §1
In Philadelphia Pa., a large number of crows, estimated at over two hundred thousand, regularly roosted on the flat roof of an industrial building.

pigeons [3] = experiment: Deterrence of pigeons from steel beams of aircraft hangar (Example 5); assay type: in vivo; conditions: 50% by weight aqueous dispersion of 9,10-anthraquinone
From the text: as §1
Pigeons regularly roosted on the exposed steel beams within a large aircraft hangar in Wilmington Del.

pigeons [4] = experiment: Deterrence of pigeons from metal beam of sports arena (Example 6); assay type: in vivo; conditions: four ounces of 50% dispersion in 29 gallons of water
From the text: as §1
Four ounces of a 50% by weight dispersion of anthraquinone in water were mixed with 29 gallons of water. The mixture was sprayed on a twenty foot section of a metal beam in the superstructure of a large sports arena. The treated beam section was open to the atmosphere and had become a roost for pigeons. Prior to the treatment, a section of walkway beneath the beam was cleaned weekly of 50-60 bird droppings. After more than 30 days following treatment of the beam with the above-described dilute anthraquinone dispersion, the pigeons had not returned to the roosting site.

red-winged blackbirds = experiment: Avian perching deterrent test, red-winged blackbirds (Example 7); assay type: in vivo, Agelaius phoeniceus
From the text: (§2) Two (2) pens (10×20×6 feet) constructed of wood and aviary wire in a roofed outdoor aviary with a concrete floor were erected. At one end of each pen a water bowl and a food bowl containing the birds' maintenance diet was provided. On the morning of day 1, the test birds were transferred from their holding cages to each of the test pens. In each pen, there was one centrally located perch. At 0800 on the morning of day 2, this perch was removed and 2 test perches were installed, one in each of the corners at the end of the pen away from the food and water. For red-winged blackbirds (Agelaius phoeniceus) and brown-headed cowbirds (Molothrus ater), the perches were made of aluminum rod, 1.2 m long and 1.0 cm in diameter. For fish crows (Corvus ossigragus), the test perches were hollow stainless steel pipe, 1.2-m long and 2.25 cm in diameter. One of the test perches (randomly determined) was coated with a product containing 50% AQ as the active ingredient (the "repellent"), and the other was uncoated. The repellent was applied to the perches with a paint brush 24-48 hours before the test. The repellent was easily applied and appeared somewhat like thinned paint. It covered the metal surfaces very well, with some streaking, and formed an opaque coating that was dry to the touch by the start of the trial. Approximately 7.5 g wet weight was applied to each crow perch and approximately 3.5 g to each blackbird/cowbird perch.
(§3) Test perches remained in the pens until 1500 on day 3 at which time the birds were captured, banded and released. The activity was videotaped in each pen during 3 30-min periods daily: 0800-0830, 1100-1130, and 1400-1430. The videotapes were reviewed to determine bird use of the perches. The number of birds on each of the test perches were recorded at 1-min intervals. Activity and locations of birds not on the perches was also noted. […]
(§4) To analyze responses of the birds to the perch treatment, the mean number of birds on each perch during each of the 6 30-min observation periods was used. The data are expressed as birds/min. […]

brown-headed cowbirds = experiment: Avian perching deterrent test, brown-headed cowbirds (Example 7); assay type: in vivo, Molothrus ater
From the text: as §2, with “The repellent was applied to the perches with a paint brush 24-48 hours before the test. The repellent was easily applied and appeared somewhat like thinned paint. It covered the metal surfaces very well, with some streaking, and formed an opaque coating that was dry to the touch by the start of the trial. Approximately 7.5 g wet weight was applied to each crow perch and approximately 3.5 g to each blackbird/cowbird perch.” left out
Test perches remained in the pens until 1500 on day 3 at which time the birds were captured, banded and released. […] The number of birds on each of the test perches were recorded at 1-min intervals. […]
as §4

fish crows = experiment: Avian perching deterrent test, fish crows (Example 7); assay type: in vivo, Corvus ossigragus
From the text: as §2, §3, §4

birds [5] = experiment: Avian perching deterrent test, all 3 test species (Example 7); assay type: in vivo, red-winged blackbirds, brown-headed cowbirds, fish crows
From the text: as §2
Test perches remained in the pens until 1500 on day 3 at which time the birds were captured, banded and released. The activity was videotaped in each pen during 3 30-min periods daily: 0800-0830, 1100-1130, and 1400-1430. The videotapes were reviewed to determine bird use of the perches. The number of birds on each of the test perches were recorded at 1-min intervals. Activity and locations of birds not on the perches was also noted. Five (5) groups of blackbirds and cowbirds and 4 groups of fish crows were tested. For blackbirds and cowbirds, there were 4 birds in each test group. For fish crows, we used 2 birds per pen.
To analyze responses of the birds to the perch treatment, the mean number of birds on each perch during each of the 6 30-min observation periods was used. The data are expressed as birds/min. A separate 2-way repeated measures analysis of variance for each of the 3 bird species was performed to test the null hypothesis of equal use between the two perches.

[6] = LD50 in northern bobwhite quail; conditions: in vivo, separate study
birds [7] = experiment: Pen and field observations of bird behavior and adverse effects; assay type: in vivo
From the text: Pen and field observations of bird behavior were made throughout the studies. In no situation were adverse effects or discomfort to the observed birds. In feeding on rice seeds, the birds squeezed the grain from the hull then ejected the hull from their mouths and ate only the inner grain.

[8] = treated on day 10, following a heavy rain

O=C1c2ccccc2C(=O)c2ccccc21 [9,10-anthraquinone]
repellency (geese [1]; 1/2 pint/acre (approximately 25 mg/m^2), after cutting, about two weeks): The same repellency was exhibited | behavior of geese that entered the treated area (geese [1]; 1 pint/acre (approximately 50 mg/m^2)): immediately ceased eating, exited the treated area, entered a nearby pond and began to wash or rinse themselves | goose count, second day after application (geese [2]; 2.77 pounds of AQ per acre, before treatment average about 150 geese): zero | goose count, day after application (geese [2]; 2.77 pounds of AQ per acre, before treatment average about 150 geese (45 to 305)): about 110 geese | period for which number of geese remained quite low in treated area vs surrounding untreated areas (geese [2]; following the treatment): more than 3 months | birds' behavior after treatment of the test area (geese [2]; in vivo): large numbers of birds were observed milling around, but not entering the treated area | number of geese, days 12-23 (geese [2]; treated on day 10): only a few geese were observed from time-to-time | number of geese, day 11 (geese [2]; treated on day 10 (over 300 geese), 2.77 pounds of AQ per acre): 109 geese | number of geese, day 12 (geese [2]; treated on day 10, 2.77 pounds of AQ per acre): zero | goose count, day 23 (geese [2]; [8]): 27 geese | number of droppings, day 23 (geese [2]; [8]): 13 droppings | number of geese, day 18 (geese [2]; treated on day 10, very low quantity of droppings): 18 geese | use of treated roof by gulls (seagulls): the gulls did not further use the surface for roosting | return of crows (crows): the crows did not return | return of pigeons (pigeons [3]): the pigeons did not return | time following treatment during which pigeons had not returned to the roosting site (pigeons [4]): more than 30 days | use of the treated perch (red-winged blackbirds; 50% AQ coating, SE=0.06, untreated perch 0.86 (SE=0.10), P=0.067): 0.41 birds/min | use of the untreated perch relative to treated perch (red-winged blackbirds; P=0.067): more than twice | use of treated perch from day 1 to day 2 (red-winged blackbirds; day x perch interaction P<0.001): decrease use of the treated perch from day 1 to day 2 | use of the treated perch (brown-headed cowbirds; 50% AQ coating, SE=0.14, untreated perch 1.70 (SE=0.23), P=0.015): 0.62 birds/min | bird use of each perch on the second day (brown-headed cowbirds; day x perch interaction P=0.222): bird use of each perch declined on the second day | use of the treated perch (fish crows; 50% AQ coating, SE=0.08, untreated perch 1.28 (SE=0.08), P=0.014): 0.64 birds/min | use of the untreated perch relative to treated perch (fish crows; P=0.014): approximately twice | use of treated perch from day 1 to day 2 (fish crows; day x perch interaction P=0.090): decreased use of the treated perch from day 1 to day 2 | preference of test species (birds [5]; 2-day trials, perch coated with repellent vs untreated): each of the 3 test species displayed a preference for the untreated perch over the one coated with repellent | signs of illness on videotapes (birds [5]; e.g. decreased activity, fluffed feathers, vomiting): no sign of illness was observed | discomfort on the treated perch (birds [5]; in vivo): no indication that they were uncomfortable or bothered by the feel of the perch was observed | initial reluctance to use the treated perches (birds [5]; in vivo): No initial reluctance by birds to use the treated perches was observed | LD50 [6]: > 2000 mg/kg | irritation of birds exposed on food (birds [7]; exposed to anthraquinone on food): no sign of irritation | effect of treated seeds on birds' behavior or pain (birds [7]; feeding on treated rice seeds): did not affect the birds' behavior or induce pain | effect of consumption on feeding behavior (birds [7]; grams of feed per day): did not affect feeding behavior | death of test birds (birds [7]; upon completion of all studies): No test birds died
